One experiment deals with T1, Fc portion of human IgG.
T1 construct: fused on or other part: horseradish peroxidase chemically conjugated to the IgG (detection label)
As to the kind of experiment: Competitive protein A binding ELISA. Particulars: for IC50: inhibition of binding of protein A to HRP-human IgG, assay in PBS; for binding activity, in words: refers to Table 1, bis-aminoanilino arrangement. Here is the method: The competitive protein A binding ELISA assay was performed on a 96-well plate MAXISORP® surface to enhance the binding of protein A to the bottom of the plate. The wells were coated with 100 μL of protein A (0.8 μg) and incubated overnight at 4° C. After incubation, unbound protein A was removed by three washes with phosphate buffer saline (PBS). The plate was then incubated with 100 μL/well of a 2% solution of bovine serum albumin (BSA) for 1 h at 37° C. to block non specific protein binding. After incubation, the plate was washed three times with PBS. 50 μL of compound or protein A, diluted in PBS or PBS-20% DMSO at appropriate concentration, were added to the wells followed by addition of 50 μL of peroxidase-conjugated human IgG (HRP-IgG). After 1 h incubation at 37° C., the plate was washed three times with PBS to remove unbound HRP-IgG. […] The plate was then read at 405 nm on a EL 800, universal microplate reader (Bio-Tek). Data was analyzed in Microsoft Excel and the concentration of compound which inhibits 50% binding of protein A (IC50) was calculated using Prism software.
In general terms: ELISA stands for enzyme-linked immunosorbent assay.

In experiment [1] the test system is oxazolone-induced delayed-type hypersensitivity (DTH) in mice. As to the kind of experiment: Oxazolone-induced delayed-type hypersensitivity (DTH). It counts as in vivo. Particulars: intravenous; for inhibition of the inflammation after the second challenge of oxazolone: FIG. 2, second challenge; for Activity (ear thickness inhibition) First Challenge: first oxazolone challenge; for Activity (ear thickness inhibition) First Challenge / Activity (ear thickness inhibition) Second Challenge: n.s. = non significant effect; for Activity (ear thickness inhibition) Second Challenge: second oxazolone challenge. The procedure:
Compounds were tested for their ability to treat oxazolone-induced delayed-type hypersensitivity (DTH) in mice. On day 0, mice were sensitized with 100 μL of oxazolone in 5% acetone. On day 0, 1 and 2, mice were treated by intravenous administration of the vehicle (control) or methotrexate (MTX; positive control) or the compound at 50 mg/kg (compound 3) or 25 mg/kg (compound 1 or 10). Mice were challenged with an application of 50 μL of oxazolone on the surface of the right ear (first challenge, day 3; second challenge, day 10). Ear thickness was measured on day 4 to day 7, and on day 11 to 14. Redness and crust formation was also observed. Mice were sacrificed on day 14. TDTH (CD4) cells play an important role in regulating the intensity of the DTH response. Compounds may exert an inhibitory influence on the DTH response through its inhibition of T-cell activation and DNA, RNA and/or protein synthesis.

The test system is the same in experiment [2]. Described as above. The format is in vivo. To be noted: per os; for Activity (ear thickness inhibition) First Challenge: first oxazolone challenge; for Activity (ear thickness inhibition) Second Challenge: second oxazolone challenge, n.s. = non significant effect.

Marks after values point to notes of the source that are not given here.

In the case of `Nc1ccc(CCNc2nc(NCCCCCCO)nc(Nc3cccc(N)c3)n2)cc1` [Compound 1], the IC50 on Fc portion of human IgG came to 93 nM. In addition, in experiment [1], the “inhibition of the inflammation after the second challenge of oxazolone” value is “significant inhibition of the inflammation” and the “Activity (ear thickness inhibition) First Challenge” value is on record as “No effect”. For the same compound, in experiment [2], the “oral activity on DTH” value is reported as “oral activity”, the “Activity (ear thickness inhibition) First Challenge” value is reported as “↓ per os (p = 0.003)” and the “Activity (ear thickness inhibition) Second Challenge” value is reported as “↓ (n.s.)*”. On to `Nc1ccc(CNc2nc(NCCCCCCO)nc(Nc3cccc(N)c3)n2)cc1` [Compound 2], for which the IC50 on Fc portion of human IgG amounted to 148 nM. The “Activity (ear thickness inhibition) Second Challenge” value in experiment [1] is on record as “No effect”.

For the compound `Nc1ccc(CCNc2nc(NCCCCO)nc(Nc3cccc(N)c3)n2)cc1` [Compound 3], the IC50 on Fc portion of human IgG was determined as 106 nM. For the same compound, the “inhibition of the inflammation after the second challenge of oxazolone” value in experiment [1] was “significant inhibition of the inflammation”. In experiment [2], the “oral activity on DTH” value is listed as “oral activity”, the “Activity (ear thickness inhibition) First Challenge” value is listed as “↓ per os (p = 0.03)” and the “Activity (ear thickness inhibition) Second Challenge” value is on record as “↓ (n.s.)”. On to `NCCCCCCNc1nc(NCCc2ccc(N)cc2)nc(Nc2cccc(N)c2)n1` [Compound 4], for which, on Fc portion of human IgG, the IC50 came out at 300 nM. The compound `NCCNc1nc(NCCc2ccc(N)cc2)nc(Nc2cccc(N)c2)n1` [Compound 5] returned an IC50 at Fc portion of human IgG of 377 nM. In addition, in experiment [2], the “oral activity on DTH” value is “oral activity”, the “Activity (ear thickness inhibition) First Challenge” value is “↓ per os (p = 0.008)” and the “Activity (ear thickness inhibition) Second Challenge” value is recorded as “↓ (n.s.)”.

At Fc portion of human IgG, `Nc1ccc(CCNc2nc(Nc3cccc(N)c3)nc(NC3CCC3)n2)cc1` [Compound 8] yielded a half-inhibitory concentration (IC50) of 53 nM.

At Fc portion of human IgG, `Nc1ccc(CCNc2nc(Nc3cccc(N)c3)nc(NC3CCCC3)n2)cc1` [Compound 9] showed a 50% inhibitory concentration (IC50) of 131 nM. The “Activity (ear thickness inhibition) Second Challenge” value in experiment [1] is “No effect”.

In turn, `Nc1ccc(CCNc2nc(NCc3cccc(N)c3)nc(Nc3cccc(N)c3)n2)cc1` [Compound 10] returned a 50% inhibitory concentration (IC50) at Fc portion of human IgG of 106 nM. The “Activity (ear thickness inhibition) Second Challenge” value in experiment [1] was “No effect”. In experiment [2], the “oral activity on DTH” value is listed as “oral activity” and the “Activity (ear thickness inhibition) First Challenge” value is recorded as “No effect per os”. As for `Nc1ccc(CCNc2nc(NCc3ccc(N)cc3)nc(Nc3cccc(N)c3)n2)cc1` [Compound 11], the IC50 at Fc portion of human IgG was 85 nM. As to `Nc1cccc(CNc2nc(Nc3cccc(N)c3)nc(Nc3cccc(N)c3)n2)c1` [Compound 12], at Fc portion of human IgG, the IC50 stood at 3 nM and the “binding activity, in words” value is “potent binding activity”. Turning to `Nc1ccc(CNc2nc(Nc3cccc(N)c3)nc(Nc3cccc(N)c3)n2)cc1` [Compound 13], at Fc portion of human IgG, the IC50 came to 1 nM and the “binding activity, in words” value is “potent binding activity”.

In turn, `COc1cccc(Nc2nc(NCCN)nc(Nc3cccc(N)c3)n2)c1` [Compound 14] yielded an IC50 at Fc portion of human IgG of 306 nM. Regarding `COc1ccc(Nc2nc(NCCN)nc(Nc3cccc(N)c3)n2)cc1` [Compound 15], the IC50 at Fc portion of human IgG came to 415 nM. In turn, `Nc1cccc(CNc2nc(N)nc(Nc3cccc(N)c3)n2)c1` [Compound 16] returned a half-maximal inhibitory concentration (IC50) at Fc portion of human IgG of 159 nM. Moreover, in experiment [1], the “Activity (ear thickness inhibition) First Challenge” value is on record as “No effect” and the “Activity (ear thickness inhibition) Second Challenge” value was “No effect”. As to `Nc1ccc(CNc2nc(N)nc(Nc3cccc(N)c3)n2)cc1` [Compound 17], the IC50 on Fc portion of human IgG was found to be 65 nM. This counts as double-digit nanomolar. Still for that read-out and setting: the value for `Nc1cccc(Nc2nc(N)nc(NCc3ccccc3N)n2)c1` [Compound 18] was 97 nM. The compound `Nc1cccc(Nc2nc(NCCCCCCO)nc(Nc3cccc(N)c3)n2)c1` [Compound 19] registered an IC50 at Fc portion of human IgG of 15 nM. Further, in experiment [1], the “Activity (ear thickness inhibition) First Challenge” value was “↓ (n.s.)” and the “Activity (ear thickness inhibition) Second Challenge” value is recorded as “No effect”. In turn, `Nc1ccc(CCNc2nc(Nc3cccc(N)c3)nc(Nc3cccc(N)c3)n2)cc1` [Compound 20] had an IC50 on Fc portion of human IgG of 65 nM. Compound `NCCNc1nc(Nc2cccc(N)c2)nc(Nc2cccc(N)c2)n1` [Compound 21] registered a half-maximal inhibitory concentration (IC50) on Fc portion of human IgG of 114 nM. On Fc portion of human IgG, `COc1cccc(Nc2nc(NCCO)nc(Nc3cccc(N)c3)n2)c1` [Compound 22] came in with an IC50 of 63 nM. The same measure, in the same setting: the value for `COc1ccc(Nc2nc(NCCO)nc(Nc3cccc(N)c3)n2)cc1` [Compound 23] was 86 nM; that for `COc1cccc(Nc2nc(NCC3CC3)nc(Nc3cccc(N)c3)n2)c1` [Compound 24] was 243 nM. On the same count and under the same terms, the value for `COc1ccc(Nc2nc(NCC3CC3)nc(Nc3cccc(N)c3)n2)cc1` [Compound 25] was 75 nM. On the same count and under the same terms, then `COc1ccc(Nc2nc(Nc3cccc(N)c3)nc(NC3CC3)n2)cc1` [Compound 26], with 126 nM; and `COc1ccc(Nc2nc(N)nc(Nc3cccc(N)c3)n2)cc1` [Compound 27], with 292 nM.

For the compound `Nc1cccc(Nc2nc(NCCO)nc(Nc3ccc(F)cc3)n2)c1` [Compound 28], the IC50 on Fc portion of human IgG was determined as 62 nM. Also, the “Activity (ear thickness inhibition) First Challenge” value in experiment [1] is recorded as “↓ (n.s.)”. Regarding `Nc1cccc(Nc2nc(NCCO)nc(NCc3cccc(F)c3)n2)c1` [Compound 29], on Fc portion of human IgG, the IC50 was 222 nM. With `Nc1cccc(CCNc2nc(NCC3CC3)nc(Nc3cccc(N)c3)n2)c1` [Compound 30], the IC50 at Fc portion of human IgG came out at 88 nM. This IC50 is about 2.5-fold lower than that of the compound before. On to `Nc1cccc(Nc2nc(NCC3CC3)nc(Nc3cccc(N)c3)n2)c1` [Compound 31], for which, on Fc portion of human IgG, the IC50 was determined as 38 nM. In experiment [1], the “Activity (ear thickness inhibition) Second Challenge” value is on record as “↓ (n.s.)”. For `Nc1cccc(Nc2nc(Nc3cccc(N)c3)nc(NC3CC3)n2)c1` [Compound 32], the concentration for half-maximal inhibition (IC50) on Fc portion of human IgG is 38 nM.

In turn, `Nc1cccc(Nc2nc(N)nc(Nc3cccc(N)c3)n2)c1` [Compound 33] displayed an IC50 at Fc portion of human IgG of 170 nM. `Nc1cccc(Nc2nc(NCCO)nc(Nc3cccc(N)c3)n2)c1` [Compound 34]: at Fc portion of human IgG, the concentration for half-maximal inhibition (IC50) amounted to 42 nM. Compared with the last compound, the IC50 is about 4-fold lower. At Fc portion of human IgG, `CN(C[C@H](O)[C@@H](O)[C@H](O)[C@H](O)CO)c1nc(Nc2cccc(N)c2)nc(Nc2cccc(N)c2)n1` [Compound 35] registered an IC50 of 37 nM. Besides, the “Activity (ear thickness inhibition) Second Challenge” value in experiment [1] is “No effect”. For `NCCCCCCNc1nc(Nc2cccc(N)c2)nc(Nc2cccc(N)c2)n1` [Compound 36], the half-inhibitory concentration (IC50) on Fc portion of human IgG amounted to 68 nM. This counts as double-digit nanomolar. The same measure, in the same setting: the value for `Nc1cccc(Nc2nc(NCCc3ccccc3N)nc(NCC3CC3)n2)c1` [Compound 38] was 312 nM; that for `Nc1cccc(Nc2nc(NCCCCO)nc(Nc3cccc(N)c3)n2)c1` [Compound 39] was 40 nM. Same read-out and setting: then `Nc1cccc(Nc2nc(NCCO)nc(Nc3cccc(F)c3)n2)c1` [Compound 41], with 36 nM; and `Nc1cccc(Nc2nc(NCCO)nc(NCc3ccc(F)cc3)n2)c1` [Compound 42], with 39 nM.

Take `Nc1cccc(Nc2nc(NCCO)nc(NCc3ccccc3F)n2)c1` [Compound 43]: the IC50 on Fc portion of human IgG amounted to 86 nM. The same measure, in the same setting: the value for `Nc1cccc(Nc2nc(NCCO)nc(Nc3ccc(Cl)cc3)n2)c1` [Compound 44] was 56 nM; that for `COc1cccc(Nc2nc(Nc3cccc(N)c3)nc(Nc3cccc(OC)c3)n2)c1` [Compound 45] was 469 nM; that for “Protein A (Control): Staphylococcal protein A, cell-surface bacterial protein which binds the Fc (tail) portion of most antibodies [reference compound]” was 187 nM.

As usually defined, the IC50 is the point on the concentration scale where inhibition reaches its midpoint.

These data come from patent publication US20090068169A1, “2,4,6-triamino-s-triazine-based compounds which bind to the tail (fc) portion of immunoglobulins and their use” (priority 2004, published 2009).
